Test results taken from patent publication US20240317826A1, “COMPOSITIONS AND METHODS FOR TREATING AND/OR I[…] AGENT FOR TREATING HIV-1 INFECTIONS” (priority 2021, published 2024).
“Also recorded” adds a separate entry of the source.

Experiments:
IN-INI1 interaction = molecular target: T1, IN-INI1 interaction (Human immunodeficiency virus type 1 group M subtype B, UniProt P04585); assay: Alpha interaction assay: effect of stapled peptides on IN-INI1 interaction; format: binding, HIV-1; details: in vitro
T1 construct: made in house; host or cells: bacteria (E. coli inferred from the pGEX vector)
Description: FIG. 8A-FIG. 8D show quantitative alpha interaction assay to determine the effect of stapled peptides on the interaction of IN and IN-CTD with INI1 and INI1183-304 or TAR RNA. […] Fixed concentrations of GST-IN, 6His-INI1, and TAR RNA were incubated with increasing concentration of stapled peptides and the interaction was detected as Alpha Score. The IC50 values were determined by fitting the data to a four-parameter dose-response curve using Graph Pad prism. All the graphs represent the average of three independent experiments (Mean+/−SEM).
AlphaScreen proximity assay to detect the protein-protein and protein-RNA interactions. AlphaScreen assay was carried out using PerkinElmer Alpha-Lisa-6His Acceptor beads (Catalogue #AL128C), Alpha-Screen-GST donor beads (Catalogue #6765300), GST-tagged and His-tagged proteins for protein-protein interactions; and Alpha-Screen Streptavidin donor beads (Catalogue #6760002 S), Alpha-Lisa-GST acceptor beads (Catalogue #AL110C), Biotin-labeled RNA and GST-tagged proteins for protein-RNA interactions. The reaction was carried out according to the manufacturer's protocol in a reaction buffer contacting (25 mM HEPES pH 7.4, 100 mM NaCl (or 500 mM NaCl), 1 mM DTT, 1 mM MgCl2 and BSA 1 mg ml/ml). The mixture of proteins or protein and RNA were incubated for 1 hr at room temperate with shaking in a multi micro-plate shaker and then 20 ag ml/ml accepter beads were added and incubated for additional 1 h with shaking. Finally, 20 ag ml^−1 of donor beads were added and further incubated for 1 hr. The Alpha score readings were measured using Alpha-compatible Envision 2105 multi-plate reader (Perkin-Elmer). All the experiments related to this method were carried out 3 to 5 times and data were analyzed by using Graph Pad Prism 9 version 9.0.0 (GraphPad Software, CA). The RNA sequences used in this assay are listed in the Table 6d and were obtained from Integrated DNA technology.
These peptides were tested for their ability to disrupt the interaction between IN-INI1 and IN-TAR RNA in vitro.

[1] = test system: reactivated HIV-1 from latent cells (J1.1); assay: Co-culture of PMA-reactivated latent J1.1 cells with CEM-GFP cells; format: cell-based; parameters: inhibition of infection of CEM-GFP cells by reactivated virus (green cells): dose or concentration left out as unconfirmed; details: J1.1 + CEM-GFP co-culture; for inhibition of infection of CEM-GFP cells by reactivated virus (green cells): PMA, images day 2 postinduction; for inhibition of virus spread, p24 levels in culture: p24 on day 5
Excerpt: FIG. 13A-FIG. 13C show staple peptides inhibit infection of reactivated HIV-1 from latent cells. […] Cells harboring latent virus (J1.1) were co-cultured with CEM-GFP cells in the presence and absence of stapled peptides. Addition of PMA reactivates HIV-1 from latent cells which infect CEM cells to induce expression of GFP. […] Images were taken on day 2 postinduction. […] Experiments was done in triplicates and the graph represents mean+/−SEM.
As a proof-of-concept to test if the stapled peptides inhibit spreading of the reactivated latent viruses, we used an in vitro cell line model of latency, J1.1 cells. J1.1 have a single latently integrated provirus which is activated using LRAs. We activated the latently integrated provirus by the addition of PMA and then mixed them with CEM-GFP cells in the cultures. Infection of CEM-GFP cells with virus produced from J1.1 upon reactivation turns the CEM-GFP T-cells green (FIGS. 13a and b right side panels). We tested the effect of addition of stapled peptides in this co-culture experiment (FIGS. 13a and b middle and left side panels). […] We furthermore determined the p24 released from the culture supernatant as a measure of the virus production in the presence and absence of stapled peptides (FIG. 13c).

[2] = test system: HIV-1 particle production; assay: Particle production (p24) in 293T cells transfected with pNL4-3 in the presence of stapled peptides; format: cell-based; details: p24 in virions and cell lysates
Description: FIG. 10A-FIG. 10B show the mechanism of HIV-1 inhibition by Stapled peptides. […] (1) Transfection of pNL4-3 plasmid in to 293T cells in the presence of stapled peptides and determine the particle production by analyzing p24 in the supernatant and cell lysates. (2) Virions produced are analyzed for their infectivity in the absence of stapled peptides. (3) Virions are subjected to Transmission Electron Microscopy (TEM) to determine the particle morphogenesis. (4) Purified and concentrated virions are subjected to Western blot analysis for the presence of INI1.
We hypothesized that INI1-derived Stapled peptides and drugs target IN and disrupt IN/RNA and IN/INI1 interactions. […] To test this hypothesis and to determine the mechanism of inhibition by stapled peptides, we tested the effect of stapled peptides on late events (production of HIV-1 particles and particle morphogenesis) and further tested the infectivity of particles that are produced (FIG. 10a).

HIV-1 virions = assay: Infectivity in CEM-GFP cells of virions produced in the presence of stapled peptides; format: cell-based; details: virions from 293T cells, 5 ng p24, infection of CEM-GFP cells in the absence of stapled peptides; GFP and p24
Description: FIG. 11A and FIG. 11B show infectivity of virions in CEM GFP cells produced in 293T cells that were treated with various stapled peptide (at 5 μM concentration) or DMSO. Equal amounts of virions treated with stapled peptides were used to infect CEM-GFP cells and the infected cells were imaged on days 1, 3, 6, 9 and 12 (FIG. 11A) and subjected to p24 ALphaLisa (FIG. 11B). FIG. 11C and FIG. 11D show Infectivity of the virions produced in the presence of increasing concentrations of stapled peptide during production in 293T cells. The 293T cells transfected with pNL4-3 were treated with increasing concentrations of stapled peptides and equal amount of virions from these cells were used to infect CEM-GFP cells. The infected cells were imaged on day 6 (FIG. 11C) and subjected to p24 ALphaLisa (FIG. 11D).
To determine the infectivity of virions produced in the presence of DMSO (DMSO-V), SP-38 (SP38-V), SP-80 (SP80-V) and SP83-D225G (SP83-V), we used equal amounts (5 ng p24) of virions to infect CEM-GFP cells in the absence of stapled peptides (FIGS. 11a and c). […] Replication of the virus was monitored by GFP expression in […] and also by assaying for the production of p24 in the culture supernatants (FIGS. 11a-d).

[3] = test system: HIV-1 virion morphogenesis; assay: TEM analysis of morphology of virions produced in the presence of stapled peptides; format: cell-based; details: ~200 virions each
Excerpt: FIG. 12A-FIG. 12C show effects of stapled peptides on virion morphogenesis and incorporation of INI1. […] The middle panel is the expanded version and the lower panel represents the carton of the two viral particles from the middle panel. Note the empty capsid shell and eccentric electron dense material, typical of morphologically defective virions. […] About 200 virions each were scored to quantify four different types of morphological forms—Conical (Co), Eccentric (Ec), Immature (Im) and Unclear (Uc).
To determine if the virions produced in the presence of stapled peptides have similar defect in virion morphogenesis, we carried out TEM analysis of the virions (˜200 each).

Substance	inhibition of IN-INI1 interactions (IN-INI1 interaction)	inhibition of infection of CEM-GFP cells by reactivated virus (green cells) [1]	inhibition of virus spread, p24 levels in culture [1]	IC50, inhibition of IN-INI1 interactions (IN-INI1 interaction)	effect on particle production [2]	infectivity of virions produced in the presence of peptide (HIV-1 virions)	virion particle morphology [3]
lys-Leu-Met-Thr-Pro-Glu-Met-Phe-S5-Glu-Ile-Leu-S5-Cys-Gly-Leu-Asn [SP83]	not	not	not	–	–	–	–
lys-Leu-Met-Thr-Pro-Glu-Met-Phe-S5-Glu-Ile-Leu-S5-Cys-Asp-Leu-Asn [SP38]	–	inhibited the infection	inhibited the virus spread; also recorded: inhibits p24 levels in induced and uninduced conditions	low nanomolar	did not affect	defective for infection; also recorded: produced non-infection virions	large number of morphologically defective “eccentric” particles and very few conical capsids; also recorded: increased proportion of eccentric virions
